Laboratory results from BindingDB's records for patent US20250011332 (Soter Biopharma, 2025).
pIC50: −log10 of the molar value.

Tests used:
[1] = target: Non-receptor tyrosine-protein kinase TYK2 (Homo sapiens, UniProt P29597); experiment: TYK2 Kinase Activity Test In Vitro
Experimental: (§1) TYK2(h) was incubated with 8 mM MOPS pH 7.0, 0.2 mM EDTA, 250 μM GGMEDIYFEFMGGKKK (SEQ ID NO: 4), 10 mM magnesium acetate, and [γ-33P]-ATP (activity and concentration were determined as required). The reaction was started by adding the Mg/ATP mixture, and after incubation at room temperature for 40 min, the reaction was terminated by adding 0.5% phosphoric acid. Then 10 μL of the reaction product was spotted on a P30 filter pad which was washed three times with 0.425% phosphoric acid and once with methanol within 4 min, dried, and subjected to scintillation counting.

[2] = target: T1, Tyrosine-protein kinase JAK3 (Homo sapiens, UniProt P52333); experiment: Jak3 Kinase Activity Test In Vitro
T1 sequence (P52333 whole entry): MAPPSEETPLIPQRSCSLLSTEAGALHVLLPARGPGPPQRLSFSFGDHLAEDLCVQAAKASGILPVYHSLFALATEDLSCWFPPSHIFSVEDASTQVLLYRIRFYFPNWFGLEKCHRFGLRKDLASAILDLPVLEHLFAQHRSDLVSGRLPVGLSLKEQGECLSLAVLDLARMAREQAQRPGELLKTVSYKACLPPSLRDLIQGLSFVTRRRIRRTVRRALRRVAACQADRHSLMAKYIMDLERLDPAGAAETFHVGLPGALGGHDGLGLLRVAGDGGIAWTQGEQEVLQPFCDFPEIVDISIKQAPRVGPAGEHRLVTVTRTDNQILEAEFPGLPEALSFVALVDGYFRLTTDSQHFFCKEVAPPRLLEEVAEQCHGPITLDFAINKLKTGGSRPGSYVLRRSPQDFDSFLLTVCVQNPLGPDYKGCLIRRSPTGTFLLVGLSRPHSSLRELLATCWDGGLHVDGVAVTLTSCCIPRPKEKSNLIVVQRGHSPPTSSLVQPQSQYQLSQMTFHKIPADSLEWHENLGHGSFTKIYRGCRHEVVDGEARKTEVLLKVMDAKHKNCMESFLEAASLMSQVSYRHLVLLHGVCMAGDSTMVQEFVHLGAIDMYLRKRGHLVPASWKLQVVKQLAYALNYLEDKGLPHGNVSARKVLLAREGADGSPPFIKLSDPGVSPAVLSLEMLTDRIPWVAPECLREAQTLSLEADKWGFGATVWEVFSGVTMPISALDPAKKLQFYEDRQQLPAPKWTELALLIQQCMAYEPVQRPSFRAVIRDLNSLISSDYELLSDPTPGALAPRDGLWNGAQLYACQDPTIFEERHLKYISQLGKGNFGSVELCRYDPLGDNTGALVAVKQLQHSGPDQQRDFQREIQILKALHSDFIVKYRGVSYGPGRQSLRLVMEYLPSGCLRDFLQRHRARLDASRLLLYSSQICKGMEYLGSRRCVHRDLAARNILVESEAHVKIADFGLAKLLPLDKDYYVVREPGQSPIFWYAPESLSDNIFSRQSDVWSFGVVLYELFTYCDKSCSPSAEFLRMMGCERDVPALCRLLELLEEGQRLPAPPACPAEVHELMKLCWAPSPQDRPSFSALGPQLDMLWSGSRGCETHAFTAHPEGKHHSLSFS
Experimental: as §1, with “JAK3(h)” for “TYK2(h)”, “500” for “250”, “GGEEEEYFELVKKKK” for “GGMEDIYFEFMGGKKK”, “3),” for “4),”

[3] = target: Tyrosine-protein kinase JAK2 (Homo sapiens, UniProt O60674); experiment: Jak2 Kinase Activity Test In Vitro
Tyrosine-protein kinase JAK2, sequence (O60674 whole entry): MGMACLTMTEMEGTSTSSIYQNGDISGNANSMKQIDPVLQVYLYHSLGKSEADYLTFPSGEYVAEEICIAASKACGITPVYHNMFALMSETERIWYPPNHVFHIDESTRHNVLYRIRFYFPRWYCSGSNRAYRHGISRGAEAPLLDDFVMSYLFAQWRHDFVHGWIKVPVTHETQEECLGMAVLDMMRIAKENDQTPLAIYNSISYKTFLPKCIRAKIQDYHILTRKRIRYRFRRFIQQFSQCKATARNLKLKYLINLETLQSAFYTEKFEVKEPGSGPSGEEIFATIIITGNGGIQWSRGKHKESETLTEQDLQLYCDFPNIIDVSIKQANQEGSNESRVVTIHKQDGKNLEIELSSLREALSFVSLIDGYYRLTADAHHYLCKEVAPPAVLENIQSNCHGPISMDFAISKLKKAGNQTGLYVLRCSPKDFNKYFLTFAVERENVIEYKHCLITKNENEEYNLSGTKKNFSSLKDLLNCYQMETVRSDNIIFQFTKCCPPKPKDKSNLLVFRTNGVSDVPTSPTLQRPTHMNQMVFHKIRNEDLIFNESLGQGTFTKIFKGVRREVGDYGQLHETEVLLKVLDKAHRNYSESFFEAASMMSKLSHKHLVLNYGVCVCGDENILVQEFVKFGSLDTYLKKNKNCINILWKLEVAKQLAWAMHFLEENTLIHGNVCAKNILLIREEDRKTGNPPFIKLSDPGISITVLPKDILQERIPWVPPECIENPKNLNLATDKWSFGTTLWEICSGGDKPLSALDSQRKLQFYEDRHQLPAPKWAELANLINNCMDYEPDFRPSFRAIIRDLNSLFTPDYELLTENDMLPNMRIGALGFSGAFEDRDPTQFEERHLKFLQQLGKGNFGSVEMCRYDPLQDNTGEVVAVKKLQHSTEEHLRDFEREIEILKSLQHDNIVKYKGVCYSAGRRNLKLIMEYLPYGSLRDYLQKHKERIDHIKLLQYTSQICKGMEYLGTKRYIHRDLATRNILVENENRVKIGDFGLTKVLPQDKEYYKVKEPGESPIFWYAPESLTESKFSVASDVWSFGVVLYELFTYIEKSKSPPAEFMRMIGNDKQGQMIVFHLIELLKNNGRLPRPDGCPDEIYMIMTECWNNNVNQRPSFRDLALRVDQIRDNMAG
Experimental: as §1, with “JAK2(h)” for “TYK2(h)”, “100” for “250”, “GGMEDIYFEFMGGKKK” left out, “2),” for “4),”

[4] = target: Tyrosine-protein kinase JAK1 (Homo sapiens, UniProt P23458); experiment: Jak1 Kinase Activity Test In Vitro
Tyrosine-protein kinase JAK1, sequence (P23458 whole entry): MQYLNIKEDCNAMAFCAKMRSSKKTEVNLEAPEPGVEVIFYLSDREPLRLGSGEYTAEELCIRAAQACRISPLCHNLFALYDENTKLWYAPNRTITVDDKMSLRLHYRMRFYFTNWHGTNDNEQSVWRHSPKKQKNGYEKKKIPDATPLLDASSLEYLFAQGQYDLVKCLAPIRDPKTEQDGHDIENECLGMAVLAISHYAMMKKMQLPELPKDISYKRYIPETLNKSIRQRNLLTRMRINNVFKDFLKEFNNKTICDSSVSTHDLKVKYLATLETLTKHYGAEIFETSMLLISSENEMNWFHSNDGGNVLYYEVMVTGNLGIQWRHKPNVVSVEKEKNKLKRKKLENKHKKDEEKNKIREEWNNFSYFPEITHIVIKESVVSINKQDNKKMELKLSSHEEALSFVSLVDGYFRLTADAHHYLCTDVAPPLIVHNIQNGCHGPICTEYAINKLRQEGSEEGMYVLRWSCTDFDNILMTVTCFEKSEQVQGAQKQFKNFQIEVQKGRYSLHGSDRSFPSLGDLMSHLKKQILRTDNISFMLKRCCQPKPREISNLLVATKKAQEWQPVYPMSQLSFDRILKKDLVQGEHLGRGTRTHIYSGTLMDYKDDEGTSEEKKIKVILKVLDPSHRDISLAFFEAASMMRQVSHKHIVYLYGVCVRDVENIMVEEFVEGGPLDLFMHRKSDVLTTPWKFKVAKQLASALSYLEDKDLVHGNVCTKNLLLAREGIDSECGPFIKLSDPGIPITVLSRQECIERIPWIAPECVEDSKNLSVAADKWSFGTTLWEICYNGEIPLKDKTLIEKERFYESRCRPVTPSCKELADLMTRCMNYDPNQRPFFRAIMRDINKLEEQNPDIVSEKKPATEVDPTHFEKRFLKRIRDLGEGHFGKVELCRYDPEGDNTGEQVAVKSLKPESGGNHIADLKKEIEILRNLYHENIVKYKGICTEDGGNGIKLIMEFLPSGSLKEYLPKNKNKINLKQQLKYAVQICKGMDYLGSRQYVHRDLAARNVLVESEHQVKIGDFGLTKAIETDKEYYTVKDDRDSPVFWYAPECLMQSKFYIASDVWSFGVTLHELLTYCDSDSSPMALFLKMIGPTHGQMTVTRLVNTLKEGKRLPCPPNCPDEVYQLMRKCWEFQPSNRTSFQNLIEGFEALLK
Experimental: JAK1(h) was incubated with 20 mM Tris/HCl pH 7.5, 0.2 mM EDTA, 500 μM MGEEPLYWSFPAKKK (SEQ ID NO: 1), 10 mM magnesium acetate and [γ-33P]-ATP (activity and concentration were determined as required). The reaction was started by adding the Mg/ATP mixture, and after incubation at room temperature for 40 min, the reaction was terminated by adding 0.5% phosphoric acid. Then 10 μL of the reaction product was spotted on a P30 filter pad which was washed three times with 0.425% phosphoric acid and once with methanol within 4 min, dried, and subjected to scintillation counting.

Non-receptor tyrosine-protein kinase TYK2, sequence (P29597 whole entry): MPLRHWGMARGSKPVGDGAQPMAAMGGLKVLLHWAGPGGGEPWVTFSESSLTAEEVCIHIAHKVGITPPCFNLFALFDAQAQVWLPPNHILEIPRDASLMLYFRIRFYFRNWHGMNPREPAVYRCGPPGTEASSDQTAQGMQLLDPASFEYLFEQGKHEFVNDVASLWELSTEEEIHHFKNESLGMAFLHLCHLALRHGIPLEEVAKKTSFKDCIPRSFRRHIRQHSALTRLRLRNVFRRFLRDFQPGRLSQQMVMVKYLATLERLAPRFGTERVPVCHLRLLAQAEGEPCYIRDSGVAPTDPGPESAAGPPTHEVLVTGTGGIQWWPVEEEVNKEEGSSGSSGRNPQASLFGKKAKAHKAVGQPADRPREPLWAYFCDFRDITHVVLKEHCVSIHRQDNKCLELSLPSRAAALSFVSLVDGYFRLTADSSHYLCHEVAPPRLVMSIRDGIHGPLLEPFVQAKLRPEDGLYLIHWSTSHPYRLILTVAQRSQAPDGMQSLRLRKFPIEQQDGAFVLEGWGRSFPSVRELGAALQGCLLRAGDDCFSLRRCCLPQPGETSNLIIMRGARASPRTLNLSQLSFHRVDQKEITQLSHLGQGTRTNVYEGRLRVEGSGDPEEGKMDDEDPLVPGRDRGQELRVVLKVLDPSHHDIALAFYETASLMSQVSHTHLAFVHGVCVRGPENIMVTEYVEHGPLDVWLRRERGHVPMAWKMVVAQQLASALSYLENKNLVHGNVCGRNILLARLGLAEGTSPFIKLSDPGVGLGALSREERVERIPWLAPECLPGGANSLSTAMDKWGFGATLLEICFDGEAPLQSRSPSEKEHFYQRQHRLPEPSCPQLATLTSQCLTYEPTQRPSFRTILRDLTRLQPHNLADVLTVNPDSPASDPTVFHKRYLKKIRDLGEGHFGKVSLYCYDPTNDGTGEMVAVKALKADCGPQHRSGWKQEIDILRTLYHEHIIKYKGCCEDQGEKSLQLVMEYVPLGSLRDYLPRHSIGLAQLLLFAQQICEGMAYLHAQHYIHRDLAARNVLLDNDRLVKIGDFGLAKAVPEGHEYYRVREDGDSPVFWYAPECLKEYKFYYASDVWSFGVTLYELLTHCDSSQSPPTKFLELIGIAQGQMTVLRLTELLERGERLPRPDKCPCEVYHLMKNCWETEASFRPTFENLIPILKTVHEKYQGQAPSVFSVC

| Compound | pIC50 [1] | pIC50 [2] | pIC50 [3] | pIC50 [4] |
| --- | --- | --- | --- | --- |
| Cn1cc(-c2cn3nccc3c(-c3cnn([C@]4(CC#N)CC5(C[C@@H](C#N)C5)C4)c3)n2)cn1 (some centres undefined) [US20250011332, Compound 4] | 7.70 |  |  |  |
| Cn1ccc(-c2cn3nccc3c(-c3cnn(C4(CC#N)CC5(CCN(C#N)C5)C4)c3)n2)n1 (centres undefined) [US20250011332, Compound 10] | 7.52 | ≤ 5.00 | 7.48 | 6.55 |
| Cn1cc(-c2cc(-c3cnn([C@]4(CC#N)CC5(C[C@H](C#N)C5)C4)c3)c3ccnn3c2)cn1 (some centres undefined) [US20250011332, Compound 17] |  | < 6.00 | 7.55 | 6.64 |
| Cn1ccc(-c2cn3nccc3c(-c3cnn([C@]4(CC#N)CC5(CC[C@@H](C#N)CC5)C4)c3)n2)n1 (some centres undefined) [US20250011332, Compound 13] | 8.00 | 5.97 | 6.99 | 6.63 |
| Cn1ccc(-c2cn3nccc3c(-c3cnn([C@]4(CC#N)CC5(CC[C@@H](C#N)CC5)C4)c3)n2)n1 (some centres undefined) [US20250011332, Compound 12] | 8.22 | 5.11 | 6.86 | 6.91 |

More lines, in order of rising pIC50 [2], values ahead:

| pIC50 [1] | pIC50 [2] | pIC50 [3] | pIC50 [4] | Compound |
| --- | --- | --- | --- | --- |
| 8.70 | 6.17 | 8.22 | 7.38 | Cn1ncc(-c2cn3nccc3c(-c3cnn([C@]4(CC#N)CC5(C[C@H](C#N)C5)C4)c3)n2)c1N (some centres undefined) [US20250011332, Compound 19] |
| 8.70 | 6.32 |  | 6.91 | Cn1cc(-c2cn3nccc3c(-c3cnn([C@]4(CC#N)CC5(C[C@@H](C#N)C5)C4)c3)n2)cn1 (some centres undefined) [US20250011332, Compound 2] |
| 9.00 | 6.32 |  | 7.85 | N#CC[C@]1(n2cc(-c3nc(-c4cc(N)[nH]n4)cn4nccc34)cn2)CC2(C[C@@H](C#N)C2)C1 (some centres undefined) [US20250011332, Compound 20] |
|  | 7.03 | 8.52 | 7.92 | Cn1ncc(-c2cn3nccc3c(-c3cnn([C@]4(CC#N)CC5(C[C@H](C#N)C5)C4)c3)n2)c1N (some centres undefined) [US20250011332, Compound 18] |
